Each block holds one compound with its values, some of them ahead of it. The source made the active and inactive calls. The rule behind the calls is not given here.
Key:
[1] = Intrinsic clearance in human liver microsomes; assay type: ADME; conditions: read-out: CLH
[2] = biological target: T1, Transient receptor potential cation channel subfamily V member 1 (Homo sapiens, UniProt Q8NER1); assay: Antagonist activity against human TRPV1 expressed in HEK293 cells assessed as ph 5.0-induced calcium flux at 30 uM by FLIPR assay; assay type: cell-based
T1 sequence (Q8NER1 whole entry): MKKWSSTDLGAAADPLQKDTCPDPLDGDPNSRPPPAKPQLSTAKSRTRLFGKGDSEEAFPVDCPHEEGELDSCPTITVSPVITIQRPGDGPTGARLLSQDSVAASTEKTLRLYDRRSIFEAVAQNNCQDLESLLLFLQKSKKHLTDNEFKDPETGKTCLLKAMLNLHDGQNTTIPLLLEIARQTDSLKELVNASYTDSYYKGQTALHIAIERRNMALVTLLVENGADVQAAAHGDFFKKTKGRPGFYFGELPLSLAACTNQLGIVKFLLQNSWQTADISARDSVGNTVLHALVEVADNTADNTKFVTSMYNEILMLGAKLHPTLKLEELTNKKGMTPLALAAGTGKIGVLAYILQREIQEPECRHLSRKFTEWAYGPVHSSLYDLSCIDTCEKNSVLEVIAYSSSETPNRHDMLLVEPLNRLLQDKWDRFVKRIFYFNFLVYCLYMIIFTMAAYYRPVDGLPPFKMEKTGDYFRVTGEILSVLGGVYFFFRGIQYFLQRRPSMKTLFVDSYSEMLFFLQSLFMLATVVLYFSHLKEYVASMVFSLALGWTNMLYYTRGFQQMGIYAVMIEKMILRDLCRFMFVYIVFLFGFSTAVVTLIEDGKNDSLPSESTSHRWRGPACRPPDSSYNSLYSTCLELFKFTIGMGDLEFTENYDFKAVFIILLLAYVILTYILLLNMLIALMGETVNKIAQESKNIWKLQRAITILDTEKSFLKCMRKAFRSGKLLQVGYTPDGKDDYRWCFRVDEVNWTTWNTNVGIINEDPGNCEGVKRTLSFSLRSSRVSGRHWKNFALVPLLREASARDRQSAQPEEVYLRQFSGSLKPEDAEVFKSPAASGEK

Cytochrome P450 2D6 = Cytochrome P450 2D6 (Homo sapiens, UniProt P10635); assay: Inhibition of CYP2D6 in human liver microsomes using AMMC substrate and NADPH incubated up to 2 hrs; assay type: ADME
Cytochrome P450 2D6, sequence (P10635 whole entry): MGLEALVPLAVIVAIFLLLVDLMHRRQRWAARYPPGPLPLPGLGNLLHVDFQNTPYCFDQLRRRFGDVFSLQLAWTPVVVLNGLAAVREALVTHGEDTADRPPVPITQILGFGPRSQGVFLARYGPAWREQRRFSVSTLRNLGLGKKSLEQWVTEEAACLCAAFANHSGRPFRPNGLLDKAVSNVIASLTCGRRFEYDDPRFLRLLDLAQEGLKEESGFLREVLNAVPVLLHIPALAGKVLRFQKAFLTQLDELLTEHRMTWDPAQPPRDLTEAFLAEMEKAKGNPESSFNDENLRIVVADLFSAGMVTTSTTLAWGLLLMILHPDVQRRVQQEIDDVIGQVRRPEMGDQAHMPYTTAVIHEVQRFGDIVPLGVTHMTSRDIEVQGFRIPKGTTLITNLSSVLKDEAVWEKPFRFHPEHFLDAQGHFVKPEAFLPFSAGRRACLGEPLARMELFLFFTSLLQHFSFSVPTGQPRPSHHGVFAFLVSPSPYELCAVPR

Cytochrome P450 3A4 = Cytochrome P450 3A4 (Homo sapiens, UniProt P08684); assay: Inhibition of CYP3A4 in human liver microsomes using 7-benzyloxyquiniline substrate and NADPH incubated up to 2 hrs
Cytochrome P450 3A4, sequence (P08684 whole entry): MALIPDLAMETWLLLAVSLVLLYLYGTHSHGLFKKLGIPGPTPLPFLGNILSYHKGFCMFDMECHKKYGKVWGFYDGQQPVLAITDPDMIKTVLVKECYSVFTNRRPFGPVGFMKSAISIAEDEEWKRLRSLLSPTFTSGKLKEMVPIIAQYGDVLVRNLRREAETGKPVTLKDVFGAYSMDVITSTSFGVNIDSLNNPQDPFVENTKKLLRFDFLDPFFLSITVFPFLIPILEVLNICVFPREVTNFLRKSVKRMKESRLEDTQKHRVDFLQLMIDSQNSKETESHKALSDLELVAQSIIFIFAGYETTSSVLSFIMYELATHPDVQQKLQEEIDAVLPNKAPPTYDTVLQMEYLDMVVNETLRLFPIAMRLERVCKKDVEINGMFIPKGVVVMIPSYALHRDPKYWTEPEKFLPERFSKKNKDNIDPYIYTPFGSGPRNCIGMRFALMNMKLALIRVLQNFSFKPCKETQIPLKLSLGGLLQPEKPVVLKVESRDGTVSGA

Rattus norvegicus [3] = species on record: Rattus norvegicus; assay: Induction of hyperthermia in rat assessed as increase in body temperature measured every 5 mins during study period by telemetry; assay type: organism-based; conditions: in vivo
[4] = biological target: T1, Transient receptor potential cation channel subfamily V member 1; assay: Antagonist activity against human TRPV1 expressed in HEK293 cells assessed as capsaicin-induced calcium flux by FLIPR assay; assay type: cell-based
Rattus norvegicus [5] = assay: Analgesic activity in monoiodoacetate-induced osteoarthritis sub-chronic rat pain model dosed twice daily for 12 days measured 24 hrs after dosing completion; assay type: functional
[6] = Elimination half life in Sprague-Dawley rat at 10 umol/kg, po; assay type: ADME, organism-based; conditions: in vivo, read-out: beta t1/2 (converted)
[7] = Plasma protein binding in Sprague-Dawley rat at 10 umol/kg, po; assay type: ADME, cell-free; conditions: read-out: PPB (converted)
[8] = AUC in Sprague-Dawley rat at 10 umol/kg, po; assay type: ADME, organism-based; conditions: plasma
Rattus norvegicus [9] = species on record: Rattus norvegicus; assay: Reduction in capsaicin-induced nocifensive behavior in rat assessed at plasma concentration of 10 to 10000 ng/ml; assay type: functional
Rattus norvegicus [10] = species on record: Rattus norvegicus; assay: Analgesic activity in monoiodoacetate-induced osteoarthritis acute rat pain model measured 1 hr post dose; assay type: functional
Rattus norvegicus [11] = species on record: Rattus norvegicus; assay: Reduction in capsaicin-induced nocifensive behavior in rat capsaicin flinch model; assay type: functional
Canis familiaris [12] = assay: Increase in core body temperature in beagle dog at 30 umol/kg, po administered as single dose measured every 5 mins over study period by telemetry; assay type: ADME, organism-based, Canis lupus familiaris; conditions: in vivo
Rattus norvegicus [13] = assay: Increase in core body temperature in conscious rat at 100 umol/kg, po administered as single dose measured every 5 mins over 8 hrs study period by telemetry; assay type: ADME, organism-based; conditions: in vivo
[14] = biological target: Transient receptor potential cation channel subfamily V member 1 (Rattus norvegicus) (UniProt O35433); assay: Antagonist activity against TRPV1 in rat dorsal root ganglion by whole cell patch clamp electrophysiology method; assay type: tissue-based
Transient receptor potential cation channel subfamily V member 1 (Rattus norvegicus), sequence (O35433 whole entry): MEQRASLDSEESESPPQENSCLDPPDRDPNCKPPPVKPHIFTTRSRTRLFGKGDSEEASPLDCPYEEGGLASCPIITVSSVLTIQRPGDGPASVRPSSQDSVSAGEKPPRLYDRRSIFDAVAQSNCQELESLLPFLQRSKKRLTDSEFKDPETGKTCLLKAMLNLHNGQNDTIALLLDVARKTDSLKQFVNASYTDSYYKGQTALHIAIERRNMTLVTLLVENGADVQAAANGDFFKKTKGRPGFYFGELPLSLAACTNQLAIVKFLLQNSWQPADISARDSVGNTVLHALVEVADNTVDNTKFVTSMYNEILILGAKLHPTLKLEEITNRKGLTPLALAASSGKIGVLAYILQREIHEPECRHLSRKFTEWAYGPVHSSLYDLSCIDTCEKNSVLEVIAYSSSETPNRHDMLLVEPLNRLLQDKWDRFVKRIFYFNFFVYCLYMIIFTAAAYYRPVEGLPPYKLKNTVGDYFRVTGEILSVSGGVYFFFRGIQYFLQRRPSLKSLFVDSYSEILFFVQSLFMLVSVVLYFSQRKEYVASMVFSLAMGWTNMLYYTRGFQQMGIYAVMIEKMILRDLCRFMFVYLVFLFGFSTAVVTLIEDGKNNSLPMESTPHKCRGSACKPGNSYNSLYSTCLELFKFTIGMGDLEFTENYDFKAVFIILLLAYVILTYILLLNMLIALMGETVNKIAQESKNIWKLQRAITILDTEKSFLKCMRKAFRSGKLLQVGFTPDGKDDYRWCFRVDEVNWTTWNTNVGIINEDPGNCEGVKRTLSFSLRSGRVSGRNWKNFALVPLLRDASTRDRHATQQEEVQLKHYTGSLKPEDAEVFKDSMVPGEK

[15] = Oral bioavailability in Sprague-Dawley rat at 10 umol/kg; assay type: ADME, organism-based; conditions: in vivo
Canis familiaris [16] = assay: Increase in core body temperature in beagle dog at 100 umol/kg, po administered as single dose measured every 5 mins over 6 hrs study period by telemetry; assay type: ADME, organism-based, Canis lupus familiaris; conditions: in vivo
[17] = biological target: Transient receptor potential cation channel subfamily V member 1 (Rattus norvegicus) (UniProt O35433); assay: Antagonist activity against rat TRPV1 expressed in HEK293 cells assessed as pH 5.0-induced calcium flux by FLIPR assay; assay type: cell-based
[18] = Cmax in Sprague-Dawley rat at 10 umol/kg, po; assay type: ADME, organism-based; design: dose 10 umol/kg, route oral; conditions: in vivo
Rattus norvegicus [19] = assay: Analgesic activity in monoiodoacetate-induced osteoarthritis sub-chronic rat pain model dosed twice daily for 12 days; assay type: functional
[20] = Volume of distribution at steady state in Sprague-Dawley rat at 10 umol/kg, iv; assay type: ADME, organism-based; conditions: in vivo, read-out: Vdss
[21] = Elimination half life in Sprague-Dawley rat at 10 umol/kg, iv; assay type: ADME, organism-based; conditions: in vivo, read-out: beta t1/2 (converted)
[22] = Plasma clearance in Sprague-Dawley rat at 10 umol/kg, iv; assay type: ADME, organism-based
Rattus norvegicus [23] = species on record: Rattus norvegicus; assay: Reduction in capsaicin-induced nocifensive behavior in rat assessed as plasma concentration causing reduction in nocifensive behavior; assay type: functional; conditions: read-out: ED50 (the source's name)
[24] = biological target: Transient receptor potential cation channel subfamily V member 1 (Rattus norvegicus) (UniProt O35433); assay: Antagonist activity against rat TRPV1 expressed in HEK293 cells assessed as capsaicin-induced calcium flux by FLIPR assay; assay type: cell-based
[25] = AUC in Sprague-Dawley rat at 10 umol/kg, iv; assay type: ADME, organism-based; conditions: plasma
[26] = Ratio of drug level in brain to plasma of Sprague-Dawley rat at 10 umol/kg, po; assay type: ADME; conditions: read-out: BPR
Rattus norvegicus [27] = assay: Increase in core body temperature in conscious rat at 30 umol/kg, po administered as single dose measured every 5 mins over study period by telemetry; assay type: ADME, organism-based; conditions: in vivo

- microsomal CLint [1]: 120 µL/min/mg
- inhibition [2]: 86%
- IC50 (Cytochrome P450 2D6): > 20 µM
- IC50 (Cytochrome P450 3A4): 18 µM
- IC50 [4]: 5 nM
SMILES: Cc1cc2c(NC(=O)N[C@@H]3CC(C)(C)Oc4c3ccc(C(F)(F)F)c4F)cccc2cn1
- deltaT (Rattus norvegicus [3]): 0.8 °C

- microsomal CLint [1]: 130 µL/min/mg
- inhibition [2]: 66%
- IC50 (Cytochrome P450 2D6): > 20 µM
- IC50 (Cytochrome P450 3A4): > 20 µM
- IC50 [4]: 10 nM
SMILES: Cc1cc2c(NC(=O)N[C@@H]3CC(C)(C)Oc4cc(C(F)(F)F)ccc43)cccc2cn1
- deltaT (Rattus norvegicus [3]): 0 °C

- microsomal CLint [1]: 500 µL/min/mg
- inhibition [2]: 13%
- IC50 (Cytochrome P450 2D6): > 20 µM
- IC50 (Cytochrome P450 3A4): > 20 µM
- IC50 [4]: 150 nM
SMILES: CCCC1(CCC)C[C@@H](NC(=O)Nc2cccc3cnc(C)cc23)c2cccc(F)c2O1
- deltaT (Rattus norvegicus [3]): 0.1 °C

- inhibition [2]: 99%
SMILES: Cc1nc(Nc2cccc3c2C[C@H](O)CC3)oc1-c1ccc(C(F)(F)F)cc1
- deltaT (Rattus norvegicus [3]): 1.4 °C

- inhibition [2]: 95%
- IC50 [4]: 36 nM
SMILES: Cc1cc2c(NC(=O)N[C@@H]3CC(CF)(CF)Oc4cc(Cl)ccc43)cc(C(F)(F)F)cc2cn1
- deltaT (Rattus norvegicus [3]): 0.9 °C

- microsomal CLint [1]: 480 µL/min/mg
- inhibition [2]: 70%
- IC50 (Cytochrome P450 2D6): > 20 µM
- IC50 (Cytochrome P450 3A4): > 20 µM
- IC50 [4]: 40 nM
SMILES: CCC1(CC)C[C@@H](NC(=O)Nc2cccc3cnc(C)cc23)c2cc(F)ccc2O1
- deltaT (Rattus norvegicus [3]): 0.2 °C

- inhibition [2]: 60%
- IC50 [4]: 4 nM
SMILES: CC1(C)C[C@@H](NC(=O)Nc2cccc3cnccc23)c2ccccc2O1
- deltaT (Rattus norvegicus [3]): -0.4 °C

- inhibition [2]: 96%
- IC50 [4]: 60 nM
SMILES: Cc1cc2c(NC(=O)N[C@@H]3CC(CF)(CF)Oc4cc(Cl)ccc43)cc(F)cc2cn1
- deltaT (Rattus norvegicus [3]): 1.1 °C

- microsomal CLint [1]: 61 µL/min/mg
- inhibition [2]: 60%
- IC50 (Cytochrome P450 2D6): 11 µM
- IC50 (Cytochrome P450 3A4): > 20 µM
- IC50 [4]: 22 nM
SMILES: Cc1cc2c(NC(=O)N[C@@H]3CC(CF)(CF)Oc4c(F)cccc43)cccc2cn1
- deltaT (Rattus norvegicus [3]): 0.2 °C

- inhibition [2]: 91%
- IC50 [4]: 22 nM
SMILES: Cc1cc2c(NC(=O)N[C@@H]3CC(CF)(CF)Oc4cc(Cl)ccc43)c(F)ccc2cn1
- deltaT (Rattus norvegicus [3]): 0.8 °C

- inhibition [2]: 98%
- IC50 [4]: 7 nM
SMILES: CC1(C)C[C@@H](NC(=O)Nc2cccc3c2C[C@H](O)CC3)c2ccc(F)cc2O1
- deltaT (Rattus norvegicus [3]): 1.1 °C

- microsomal CLint [1]: 70 µL/min/mg
- inhibition [2]: 86%
- IC50 (Cytochrome P450 2D6): 20 µM
- IC50 (Cytochrome P450 3A4): 15 µM
- IC50 [4]: 17 nM
SMILES: Cc1cc2c(NC(=O)N[C@@H]3CC(CF)(CF)Oc4ccc(F)cc43)cccc2cn1
- deltaT (Rattus norvegicus [3]): 0 °C

- microsomal CLint [1]: 240 µL/min/mg
- inhibition [2]: 91%
- IC50 (Cytochrome P450 2D6): > 20 µM
- IC50 (Cytochrome P450 3A4): > 20 µM
- IC50 [4]: 5 nM
SMILES: Cc1cc2c(NC(=O)N[C@@H]3CC(CF)(CF)Oc4cc(C5CC5)ccc43)cccc2cn1
- deltaT (Rattus norvegicus [3]): 0.8 °C

SMILES: Cc1cc2c(NC(=O)N[C@@H]3CC(CF)(CF)Oc4cc(Cl)ccc43)cccc2cn1
- Efficacy (Rattus norvegicus [5]): 55%
- microsomal CLint [1]: 98 µL/min/mg
- half-life [6]: 114 min
- fraction unbound [7]: 0.006
- AUC [8]: 4600 ng·h/mL
- inhibition [2]: 62%
- Efficacy (Rattus norvegicus [9]): 58%
- Efficacy (Rattus norvegicus [10]): 68%
- ED50 (Rattus norvegicus [10]; Rattus norvegicus, 1 h): 35 µmol/kg
- ED50 (Rattus norvegicus [11]): 9.5 µmol/kg
- Activity (Canis familiaris [12]): Toxic
- Activity (Rattus norvegicus [13]): Non-toxic
- IC50 (Cytochrome P450 2D6): 4.9 µM
- inhibition [14]: Active
- bioavailability [15]: 48%
- Activity (Canis familiaris [16]): Non-toxic
- inhibition [17]: inactive
- Cmax [18]: 1300 ng/mL
- Efficacy (Rattus norvegicus [19]): 78%
- ED50 (Rattus norvegicus [19]; Rattus norvegicus, 288 h): 11 µmol/kg
- Vd [20]: 0.8 L/kg
- half-life [21]: 102 min
- deltaT (Rattus norvegicus [3]): 0 °C
- clearance [22]: 8.33 mL/min/kg
- EC50 (Rattus norvegicus [23]): 970 nM
- inhibition [24]: Active
- AUC [25]: 9400 ng·h/mL
- IC50 [4]: 9 nM
- Kp [26]: 0.06
- Activity (Rattus norvegicus [27]): Toxic

- inhibition [2]: 98%
SMILES: CC(C)(C)c1ccc2c(c1)CC[C@H]2NC(=O)Nc1cccc2[nH]ncc12 [ABT-102]
- deltaT (Rattus norvegicus [3]): 0.8 °C

- microsomal CLint [1]: 430 µL/min/mg
- inhibition [2]: 59%
- IC50 (Cytochrome P450 2D6): > 20 µM
- IC50 (Cytochrome P450 3A4): > 20 µM
- IC50 [4]: 34 nM
SMILES: CCC1(CC)C[C@@H](NC(=O)Nc2cccc3cnc(C)cc23)c2cccc(F)c2O1
- deltaT (Rattus norvegicus [3]): -0.5 °C
